Measurements published in patent US12172986B2, “Splicing modulator antibody-drug conjugates and methods of use” (EISAI R&D MANAGEMENT CO., LTD., priority 2018, dated 2024).

Columns and labels:
[1] = Caco-2 permeability of ADC payload; assay type: in vitro ADME; conditions: human, Caco-2, payload; for efflux ratio at 2 h, 10 μM: B-A/A-B, read-out: Eflux ratio
Protocol: (§1) Integrity of cell monolayer was confirmed by TEER (transepithelial electrical resistance) and Lucifer yellow. Payloads were spiked in duplicate at 10 μM, separately, on both sides of the cell monolayer. Permeability rates from the apical to basolateral (A-B) direction and the basolateral to apical (B-A) direction were determined by sampling aliquots from both chambers immediately after treatment (t=0) and following incubation for 2 hours. Samples were protein precipitated with organic solvent containing internal standard and analyzed by LC-MS/MS (SCIEX; API 5500). The area ratio responses of payload/internal standard over time in both directions were used to generate permeability (cm/see) values. Efflux ratio was calculated by dividing B-A/A-B. Control compounds for low and high permeability and efflux behaved as expected.

Ad2.2 pre-mRNA splicing = assay: In vitro splicing (IVS) RT-qPCR, Ad2.2 pre-mRNA, HeLa nuclear extract; assay type: biochemical; conditions: payload of the ADC; read-out: qPCR-IVS-AT S GMean IC50 (nM) Ad2.2 HELA.2
Protocol: To evaluate payload activity in a cell-free system, an in vitro splicing assay was performed. The payloads were incubated with nuclear extracts and pre-mRNA substrate minigenes.
HeLa nuclear extract preparation: HeLa S3 cell pellets were resuspended in hypotonic buffer (10 mM HEPES pH 7.9, 1.5 mM MgCl2, 10 mM KCl, 0.2 mM PMSF, 0.5 mM DTT) and the suspension was brought up to a total of 5 packed cell volume (PCV). After centrifugation, the supernatant was discarded, and the cells were brought up to 3 PCV with hypotonic buffer and incubated on ice for 10 min. Cells were lysed using a dounce homogenizer and then centrifuged. […]. The nuclei were gently mixed for 30 min before centrifuging. The supernatant (nuclear extract) was then dialyzed into storage buffer (20 mM HEPES pH 7.9, 100 mM KCl, 0.2 mM EDTA, 20% glycerol, 0.2 mM PMSF, 0.5 mM DTT). Protein concentration was determined using NanoDrop 8000 UV-Vis spectrophotometer (ThermoFisher Scientific).
IVS: All Ad2-derived sequences (Pellizzoni et al. (1998) Cell 95(5):615-24) were cloned into pcDNA3.1(+) vector (Promega) using 5′ EcoRI and 3′ Xbal restriction sites. The plasmids were linearized using Xbal and used as DNA templates in in vitro transcription reactions. The FtzΔi intron-less plasmid (Luo and Reed (1999) 96(26):14937-42) was linearized using EcoRI. All RNAs were in vitro transcribed and then purified using MEGAScript T7 (Invitrogen) and MegaClear (Invitrogen) kits, respectively. For splicing reactions using Ad2 variant pre-mRNAs, 1 μL reactions were prepared using 8 μg nuclear extracts prepared from HeLa S3, 2 ng pre-mRNA, 0.2 ng FTZΔi, and varying concentrations of compounds or DMSO. After a 15 min pre-incubation at 30° C., 1 μL splicing activation buffer (0.5 mM ATP, 20 mM creatine phosphate, 1.6 mM MgCl2) was added, and the reactions were incubated for 90 min at 30° C. The reactions were then quenched with 13 μL DMSO, and 25 nL was used for RT-qPCR. RT-qPCR reactions were prepared using TaqMan RNA-to-CT 1-step kit (Life Technologies), RNA from splicing reactions, Ad2 (forward: […]; reverse: […]; probe: […]) and Ftz (forward: […]; reverse: […]; probe: […]) mRNA primer-probe sets. Prism 7 (Graphpad) was used for non-linear regression curve fitting of the formed spliced product and normalized to the control (DMSO) sample. […] In the presence of payload, a decrease in the amount of spliced product was observed.

THP1.1 = assay: Payload cell potency and lethality CTGlo 72 h, THP1.1; assay type: cell-based; conditions: for CTGlo-AT S GMean LD50 (nM) 72 h THP1.1: payload; for GI50: read-out: CTGlo-AT S GMean GI50 (nM) Ad2.2 HELA.2
Ad2.1 pre-mRNA splicing = assay: In vitro splicing (IVS) RT-qPCR, Ad2.1 pre-mRNA, HeLa nuclear extract; assay type: biochemical; conditions: payload of the ADC; read-out: qPCR-IVS-AT S Gmean IC50 (nm) Ad2.1 HELA.2
Protocol: HeLa nuclear extract preparation: HeLa S3 cell pellets were resuspended in hypotonic buffer (10 mM HEPES pH 7.9, 1.5 mM MgCl2, 10 mM KCl, 0.2 mM PMSF, 0.5 mM DTT) and the suspension was brought up to a total of 5 packed cell volume (PCV). After centrifugation, the supernatant was discarded, and the cells were brought up to 3 PCV with hypotonic buffer and incubated on ice for 10 min. Cells were lysed using a dounce homogenizer and then centrifuged. […] The nuclei were gently mixed for 30 min before centrifuging. The supernatant (nuclear extract) was then dialyzed into storage buffer (20 mM HEPES pH 7.9, 100 mM KCl, 0.2 mM EDTA, 20% glycerol, 0.2 mM PMSF, 0.5 mM DTT). Protein concentration was determined using NanoDrop 8000 UV-Vis spectrophotometer (ThermoFisher Scientific).
IVS: All Ad2-derived sequences (Pellizzoni et al. (1998) Cell 95(5):615-24) were cloned into pcDNA3.1(+) vector (Promega) using 5′ EcoRI and 3′ Xbal restriction sites. The plasmids were linearized using Xbal and used as DNA templates in in vitro transcription reactions. The FtzΔi intron-less plasmid (Luo and Reed (1999) 96(26):14937-42) was linearized using EcoRI. All RNAs were in vitro transcribed and then purified using MEGAScript T7 (Invitrogen) and MegaClear (Invitrogen) kits, respectively. For splicing reactions using Ad2 variant pre-mRNAs, 1 μL reactions were prepared using 8 μg nuclear extracts prepared from HeLa S3, 2 ng pre-mRNA, 0.2 ng FTZΔi, and varying concentrations of compounds or DMSO. After a 15 min pre-incubation at 30° C., 1 μL splicing activation buffer (0.5 mM ATP, 20 mM creatine phosphate, 1.6 mM MgCl2) was added, and the reactions were incubated for 90 min at 30° C. The reactions were then quenched with 13 μL DMSO, and 25 nL was used for RT-qPCR. RT-qPCR reactions were prepared using TaqMan RNA-to-CT 1-step kit (Life Technologies), RNA from splicing reactions, Ad2 (forward: [sequence]; reverse: [sequence]; probe: [sequence]) and Ftz (forward: [sequence]; reverse: [sequence]; probe: [sequence]) mRNA primer-probe sets. Prism 7 (Graphpad) was used for non-linear regression curve fitting of the formed spliced product and normalized to the control (DMSO) sample.

N87 cells = assay: Cell viability CellTiter-Glo, N87; assay type: cell-based, human; conditions: unconjugated payload of the ADC
Protocol: (§2) HCC1954 (American Type Culture Collection (ATCC)) breast ductal carcinoma cells were plated at 2000 cells/well in flat bottom 96-well tissue culture plates (Corning) in a total volume of 90 μL tissue culture medium supplemented with 10% fetal bovine serum (ThermoFisher Scientific). Cells were treated with a 3-fold serial dilution of compound from 200 nM to 0.03 nM. Each concentration was tested in triplicate. At the time of treatment, a plate of untreated cells was evaluated using CellTiter-Glo®2.0 Luminescent Cell Viability Assay according to the manufacturer's recommendations (Promega; #G9241). CellTiter-Glo® 2.0 reagent was added to the medium, incubated, and assayed on an EnVision Multilabel Reader (PerkinElmer). Values represent time zero (TO). […] Percentage growth inhibition was calculated as: [(T144-T0)/(C-TO)]×100 for concentrations for which T144>/=TO or [(T144-T0)/T0]×100 for concentrations for which T144<TO. The dose response curve plots were generated using Prism 7 (Graphpad) and fit using nonlinear regression analysis and the log(inhibitor) versus response-variable slope (four parameters).
(§3) HCC1954 (ATCC), 2000 cells/well), N87 (ATCC, 4000 cells/well), SKBR3 (ATCC, 3000 cells/well), and MCF7 (ATCC, 1500 cells/well) cell lines were used.

MCF7 cells = assay: Cell viability CellTiter-Glo, HER2-negative MCF7; conditions: unconjugated payload of the ADC
Protocol: HCC1954 (American Type Culture Collection (ATCC)) breast ductal carcinoma cells were plated at 2000 cells/well in flat bottom 96-well tissue culture plates (Corning) in a total volume of 90 μL tissue culture medium supplemented with 10% fetal bovine serum (ThermoFisher Scientific). Cells were treated with a 3-fold serial dilution of compound from 200 nM to 0.03 nM. Each concentration was tested in triplicate. At the time of treatment, a plate of untreated cells was evaluated using CellTiter-Glo®2.0 Luminescent Cell Viability Assay according to the manufacturer's recommendations (Promega; #G9241). CellTiter-Glo® 2.0 reagent was added to the medium, incubated, and assayed on an EnVision Multilabel Reader (PerkinElmer). Values represent time zero (TO). […] Using the luminescence value at time zero (TO), DMSO control growth (C), and test growth in the presence of compound (T144), the percentage growth was calculated at each of the compound concentrations levels. Percentage growth inhibition was calculated as: [(T144-T0)/(C-TO)]×100 for concentrations for which T144>/=TO or [(T144-T0)/T0]×100 for concentrations for which T144<TO. The dose response curve plots were generated using Prism 7 (Graphpad) and fit using nonlinear regression analysis and the log(inhibitor) versus response-variable slope (four parameters).
as §3

HCC1954 cells = assay: Cell viability CellTiter-Glo, HCC1954; assay type: cell-based; conditions: unconjugated payload of the ADC
Protocol: as §2, §3

PC3 cells = assay: Cell viability, EPHA2-expressing PC3; assay type: cell-based; conditions: for GI50: Homo sapiens, PC-3, corresponding payload alone; for Payload LD50: corresponding payload alone
Protocol: as §2

Caco-2 cells = assay: Caco-2 permeability of ADC payload; assay type: in vitro ADME; conditions: for Perm. Mean Caco-2 A-B Perm (10e-6 cm/s) / Perm. Mean Caco-2 B-A Perm (10e-6 cm/s): corresponding free payload of the ADC
Protocol: as §1

MOLP8 cells = assay: Cell viability, CD138-expressing MOLP8; assay type: cell-based; conditions: unconjugated payload of the ADC
Protocol: as §2

CC[C@H](O)[C@@H](C)[C@H]1O[C@@H]1C[C@H](C)/C=C/C=C(\C)[C@H]1OC(=O)C[C@H](O)CC[C@@](C)(OC(=O)N2CCNCC2)[C@@H](OC(C)=O)/C=C/[C@@H]1C [D13]
efflux ratio at 2 h, 10 μM [1]: 19.1 | IC50 (Ad2.2 pre-mRNA splicing): 8.82 nM | CTGlo-AT S GMean LD50 (nM) 72 h THP1.1 (THP1.1): 3.358 nM | IC50 (Ad2.1 pre-mRNA splicing): 11.3 nM

CC[C@H](O)[C@@H](C)[C@H]1O[C@@H]1C[C@@](C)(O)/C=C/C=C(\C)[C@H]1OC(=O)C[C@H](O)CC[C@@](C)(O)[C@@H](OC(=O)N2CCN(C3CCCCCC3)CC2)/C=C/[C@@H]1C [D11, E7107]
IC50 (Ad2.2 pre-mRNA splicing): 9.36 nM | CTGlo-AT S GMean LD50 (nM) 72 h THP1.1 (THP1.1): 8.086 nM | GI50 (THP1.1): 1.35 nM | IC50 (Ad2.1 pre-mRNA splicing): 10.5 nM

CC[C@H](O)[C@@H](C)[C@H]1O[C@@H]1C[C@H](C)/C=C/C=C(\C)[C@H]1OC(=O)C[C@H](O)CC[C@@](C)(OC)[C@@H](OC(=O)N2CCNCC2)/C=C/[C@@H]1C [D18, (2S,3S,6S,7R,10R,E)-10-hydroxy-2-((S,2E,4E)-7-((2R,3R)-3-((2R,3S)-3-hydroxypentan-2-yl)oxiran-2-yl)-6-methylhepta-2,4-dien-2-yl)-7-methoxy-3,7-dimethyl-12-oxooxacyclododec-4-en-6-yl piperazine-1-carboxylate]
IC50 (Ad2.2 pre-mRNA splicing): 12.7 nM | CTGlo-AT S GMean LD50 (nM) 72 h THP1.1 (THP1.1): 4.355 nM | Payload LD50 (N87 cells): 2.993 nM | Payload LD50 (MCF7 cells): 7.697 nM | Payload Rmin (%) (MCF7 cells): −68.226% | Payload LD50 (HCC1954 cells): 0.787 nM | Payload Rmin (%) (HCC1954 cells): −90.055% | GI50 (PC3 cells): 1.41 nM | Payload LD50 (PC3 cells): >400 nM | IC50 (Ad2.1 pre-mRNA splicing): 12.7 nM

C/C(=C\c1cc(F)cc(N2CCN(C(=O)Cn3cccn3)CC2)c1)[C@H]1OC(=O)C[C@H](O)CC[C@H](C)[C@@H](OC(=O)N2CCN(C)CC2)/C=C/[C@@H]1C [D26]
efflux ratio at 2 h, 10 μM [1]: 2.58 | IC50 (Ad2.2 pre-mRNA splicing): 14.3 nM | CTGlo-AT S GMean LD50 (nM) 72 h THP1.1 (THP1.1): 28.483 nM | IC50 (Ad2.1 pre-mRNA splicing): 18.8 nM

CC[C@H](O)[C@@H](C)[C@H]1O[C@@H]1C[C@@](C)(O)/C=C/C=C(\C)[C@H]1OC(=O)C[C@H](O)CC[C@@](C)(OC(=O)N2CCNCC2)[C@@H](OC(C)=O)/C=C/[C@@H]1C [D8, (2S,3S,6S,7R,10R,E)-6-acetoxy-10-hydroxy-2-((R,2E,4E)-6-hydroxy-7-((2R,3R)-3-((2R,3S)-3-hydroxypentan-2-yl)oxiran-2-yl)-6-methylhepta-2,4-dien-2-yl)-3,7-dimethyl-12-oxooxacyclododec-4-en-7-yl piperazine-1-carboxylate]
Perm. Mean Caco-2 A-B Perm (10e-6 cm/s) (Caco-2 cells): 0.128 10e-6 cm/s | Perm. Mean Caco-2 B-A Perm (10e-6 cm/s) (Caco-2 cells): 2.027 10e-6 cm/s | efflux ratio at 2 h, 10 μM [1]: 15.9 | IC50 (Ad2.2 pre-mRNA splicing): 9.03 nM | CTGlo-AT S GMean LD50 (nM) 72 h THP1.1 (THP1.1): 38.969 nM | Payload LD50 (N87 cells): >200 nM | Payload LD50 (MCF7 cells): 181.521 nM | Payload Rmin (%) (MCF7 cells): −62.957% | Payload LD50 (HCC1954 cells): 11.175 nM | Payload Rmin (%) (HCC1954 cells): −80.463% | Payload LD50 (PC3 cells): 177.783 nM | IC50 (Ad2.1 pre-mRNA splicing): 11.4 nM

C/C(=C\c1cc(F)cc(N2CCN(S(=O)(=O)c3cnn(C)c3)CC2)c1)[C@H]1OC(=O)C[C@H](O)CC[C@H](C)[C@@H](OC(=O)N2CCNCC2)/C=C/[C@@H]1C [D28]
GI50 (PC3 cells): > 400 nM | Payload LD50 (PC3 cells): >400 nM

CC[C@H](O)[C@@H](C)[C@H]1O[C@@H]1C[C@H](C)/C=C/C=C(\C)[C@H]1OC(=O)C[C@H](O)CC[C@@](C)(OC(C)=O)[C@@H](OC(=O)N2CCNCC2)/C=C/[C@@H]1C [D9]
efflux ratio at 2 h, 10 μM [1]: 14 | IC50 (Ad2.2 pre-mRNA splicing): 18.1 nM | CTGlo-AT S GMean LD50 (nM) 72 h THP1.1 (THP1.1): 3.56 nM | IC50 (Ad2.1 pre-mRNA splicing): 20.2 nM

CC(=O)N1CCC(n2nnc3c(F)cc(/C=C(\C)[C@H]4OC(=O)C[C@H](O)CC[C@H](C)[C@@H](OC(=O)N5CCNCC5)/C=C/[C@@H]4C)cc32)CC1 [D14]
efflux ratio at 2 h, 10 μM [1]: 202 | IC50 (Ad2.2 pre-mRNA splicing): 8.59 nM | CTGlo-AT S GMean LD50 (nM) 72 h THP1.1 (THP1.1): 25.594 nM | GI50 (THP1.1): 3.58 nM | Payload LD50 (N87 cells): >200 nM | Payload LD50 (MCF7 cells): 77.198 nM | Payload Rmin (%) (MCF7 cells): −61.886% | LD50 (nM) (payload) (MOLP8 cells): 8.5 nM | Rmin (%) (payload) (MOLP8 cells): −61% | Payload LD50 (PC3 cells): >400 nM | IC50 (Ad2.1 pre-mRNA splicing): 10 nM

CC[C@H](O)[C@@H](C)[C@H]1O[C@@H]1C[C@@](C)(O)/C=C/C=C(\C)[C@H]1OC(=O)C[C@H](O)CC[C@@](C)(OC)[C@@H](OC(=O)N(C)CCNC)/C=C/[C@@H]1C [D20, (2S,3S,6S,7R,10R,E)-10-hydroxy-2-((R,2E,4E)-6-hydroxy-7-((2R,3R)-3-((2R,3S)-3-hydroxypentan-2-yl)oxiran-2-yl)-6-methylhepta-2,4-dien-2-yl)-7-methoxy-3,7-dimethyl-12-oxooxacyclododec-4-en-6-yl methyl(2-(methylamino)ethyl)carbamate]
IC50 (Ad2.2 pre-mRNA splicing): 8.75 nM | CTGlo-AT S GMean LD50 (nM) 72 h THP1.1 (THP1.1): 113.557 nM | IC50 (Ad2.1 pre-mRNA splicing): 10.9 nM

CC[C@H](O)[C@@H](C)[C@H]1O[C@@H]1C[C@@](C)(O)/C=C/C=C(\C)[C@H]1OC(=O)C[C@H](O)CC[C@@](C)(OC)[C@@H](OC(=O)N2CCNC(CCC(=O)O)C2)/C=C/[C@@H]1C (stereo partly drawn) [D22, 3-(4-((((2S,3S,6S,7R,10R,E)-10-hydroxy-2-((R,2E,4E)-6-hydroxy-7-((2R,3R)-3-((2R,3S)-3-hydroxypentan-2-yl)oxiran-2-yl)-6-methylhepta-2,4-dien-2-yl)-7-methoxy-3,7-dimethyl-12-oxooxacyclododec-4-en-6-yl)oxy)carbonyl)piperazin-2-yl)propanoic acid]
Papp B→A at 2 h, 10 μM ([1]; 10 μM, 2 hours, basolateral to apical, read-out: Permeability Mean Caco-2 B-A Perm (10e-Gcm/s)): 0.18 ×10⁻⁶ cm/s | IC50 (Ad2.2 pre-mRNA splicing): 49.1 nM | CTGlo-AT S GMean LD50 (nM) 72 h THP1.1 (THP1.1): 1594.636 nM | IC50 (Ad2.1 pre-mRNA splicing): 66.3 nM

CC[C@H](O)[C@@H](C)[C@H]1O[C@@H]1C[C@@](C)(O)/C=C/C=C(\C)[C@H]1OC(=O)C[C@H](O)CC[C@@](C)(O)[C@@H](OC(=O)N2CCNCC2)/C=C/[C@@H]1C [D12, (2S,3S,6S,7R,10R,E)-7,10-dihydroxy-2-((R,2E,4E)-6-hydroxy-7-((2R,3R)-3-((2R,3S)-3-hydroxypentan-2-yl)oxiran-2-yl)-6-methylhepta-2,4-dien-2-yl)-3,7-dimethyl-12-oxooxacyclododec-4-en-6-yl piperazine-1-carboxylate]
Perm. Mean Caco-2 A-B Perm (10e-6 cm/s) (Caco-2 cells): 0.17 10e-6 cm/s | Perm. Mean Caco-2 B-A Perm (10e-6 cm/s) (Caco-2 cells): 0.23 10e-6 cm/s | efflux ratio (in words) (Caco-2 cells; payload): low efflux ratio

C/C(=C\c1cc(F)cc(N2CCN(CC(=O)O)CC2)c1)[C@H]1OC(=O)C[C@H](O)CC[C@H](C)[C@@H](OC(=O)N2CCNCC2)/C=C/[C@@H]1C [D33, 2-(4-(3-fluoro-5-((E)-2-((2S,3S,6R,7S,10R,E)-10-hydroxy-3,7-dimethyl-12-oxo-6-((piperazine-1-carbonyl)oxy)oxacyclododec-4-en-2-yl)prop-1-en-1-yl)phenyl)piperazin-1-yl)acetic acid]
IC50 (Ad2.2 pre-mRNA splicing): 72.4 nM | CTGlo-AT S GMean LD50 (nM) 72 h THP1.1 (THP1.1): 5202.992 nM | GI50 (THP1.1): 196 nM | IC50 (Ad2.1 pre-mRNA splicing): 33.4 nM
